Source: patent US12077607B2, “Functional and therapeutic effects of PAR4 cleavage by cathepsin G” (UNIVERSITY OF UTAH RESEARCH FOUNDATION, priority 2021, dated 2024)
Entries after “also recorded” stand apart in the source; their conditions may differ.

Assays:
PAR4-C (SEQ ID NO: 8) = target: T1, PAR4-C (SEQ ID NO: 8) (Homo sapiens, UniProt Q96RI0); experiment: PAR4 peptide cleavage analysis by LC-MS/MS, PAR4-C; format: biochemical; conditions: CatG 400 nM, 37° C., 15 minutes; thrombin
T1 construct: purchased BIOMATIK (Wilmington, DE, USA); host or cells: chemical synthesis
T1 sequence (Q96RI0 57-78 limits assumed): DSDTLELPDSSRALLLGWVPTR
Description: (§1) PAR-4 Peptide and Cleavage Analysis. PAR4 synthetic peptides were incubated with protease, snapped frozen, and sent for mass spectrometry analysis. PAR-4B ([…]; SEQ ID NO: 7) and PAR-4C ([…]; SEQ ID NO: 8) were synthesized by BIOMATIK (Wilmington, DE, USA). PAR4-B and PAR4-C were incubated with vehicle, thrombin (100 nM) or cathepsin G (400 nM) at 37° C. for 15 minutes to an hour depending on the experimental condition. After digestion with the indicated protease, reactions were snapped frozen and sent to the University of Arizona, Analytical and Biological Mass Spectrometry Core Facility (Tucson, Arizona) for analysis. LC-MS/MS analysis was done on a Q Exactive Plus mass spectrometer (Thermo Fisher Scientific, San Jose, CA) equipped with an EASY-Spray nanoESI source. […] The peptide identification results were further analyzed with Scaffold Q+S v 4.8.7 (Proteome Software Inc., Portland OR), a program that relies on various search engine results (i.e.: Sequest, X!Tandem, MASCOT) and which uses Bayesian statistics to reliably identify more spectra9.

PAR4-S66E = target: T2, PAR4-S66E (Homo sapiens, UniProt Q96RI0, S66E); experiment: PAR4 mutant calcium flux assay, HEK293T/17 cells, S66E; format: cell-based; conditions: 100 nM vorapaxar
T2 construct: Flag; expressed in transfected cells; host or cells: HEK293T/17 (ATCC CRL-11268)
T2 sequence (Q96RI0 18-385 S66E): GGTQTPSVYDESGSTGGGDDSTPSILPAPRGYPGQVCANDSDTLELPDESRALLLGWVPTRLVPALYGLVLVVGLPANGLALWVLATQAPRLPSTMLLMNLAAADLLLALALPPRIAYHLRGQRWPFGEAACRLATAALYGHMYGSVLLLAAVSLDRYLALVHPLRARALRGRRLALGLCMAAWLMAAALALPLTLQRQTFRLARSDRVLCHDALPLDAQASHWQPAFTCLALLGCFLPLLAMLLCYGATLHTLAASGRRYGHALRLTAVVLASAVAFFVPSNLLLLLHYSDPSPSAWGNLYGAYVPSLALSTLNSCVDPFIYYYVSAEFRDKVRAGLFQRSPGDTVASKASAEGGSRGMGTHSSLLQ
Description: PAR4 mutant calcium flux assays. Using Quikchange Lightning Site-Directed mutagenesis (Agilent) per manufacturing instructions, pCMV-Flag-PAR4-S66E, pCMV-Flag-PAR4-S67E, and pCMV-Flag-PAR4-R68E were generated from mutation of pCMV-Flag-PAR4 and confirmed by sequencing (University of Utah DNA Sequencing Core). Prior to transfection, HEK293T/17 cells (ATCC CRL-11268) were seeded at 4.5×10^4/mL. The following day, cells were transfected with the plasmid of interest using Lipofectamine 2000 (Invitrogen, Carlsbad, CA, USA). Twenty-four hours after transfection, media was removed and replaced with Optimem w/Glutamax (Gibco, Carlsbad, CA, USA) containing vorapaxar (100 nM) (Cayman Chemical, Ann Arbor, MI, USA) and Fura2-QBT (Molecular Devices). Following incubation for 1 hour at 37° C., plate was placed in the Flexstation 3 (Molecular Devices) where agonists, Tyrode's Buffer, cathepsin G (2.5 μM), or α-thrombin (1.5 U/mL), were injected onto cells and calcium mobilization was monitored and recorded.

PAR4-B (SEQ ID NO: 7) = target: T3, PAR4-B (SEQ ID NO: 7) (Homo sapiens, UniProt Q96RI0); experiment: PAR4 peptide cleavage analysis by LC-MS/MS, PAR4-B; format: biochemical; conditions: thrombin 100 U/mL or 100 nM, CatG 400 nM, 37° C.
T3 construct: purchased BIOMATIK (Wilmington, DE, USA); host or cells: chemical synthesis
Description: as §1, with “source. Peptides (500 ng) were injected onto an Acclaim Pepmap 100 trap column (75 micron ID x 2 cm, Thermo Scientific), washed for 10 min at 3% mobile phase B (acetonitrile, 0.1% formic acid, mobile phase A consisting of water and 0.1% formic acid) then eluted onto an Acclaim PepMap RSLC analytical column (75 micron ID x 25 cm, Thermo Scientific using a 3-20% gradient of B over 40 min, 20-50% solvent B over 5 min, 50-95% of solvent B over 5 min, then a hold of solvent 95% B for 10 min, and finally a return to 3% solvent B for 1 min, then a hold at 3% B for 10 min. Flow rates were 300 nL/min using a Dionex Ultimate 3000 RSLCnano System (Thermo Scientific).” for “source.”

rat washed platelets = experiment: Platelet aggregation of rat washed platelets; format: cell-based; conditions: 1 U/mL human thrombin, 1 μM human CatG or 1 mM RA-11mer
Description: Platelet and neutrophil isolation. Platelets and neutrophils were isolated as previously described (Yost et al., J Clin Invest. 2016; 126(10):3783-3798). Platelet isolation from dogs, rats and mice was approved by the IACUC. Platelet activation and aggregation were performed as previously described (Manne et al., Blood. 2020; 136(11): 1317-1329).
Platelet isolation, aggregation, and activation. Human washed platelets were prepared and resuspended in Tyrode's Buffer at 2×10^8/mL as described (Edelstein et al., Nat Med. 2013; 19(12):1609-1616). For human and dog platelet comparisons, platelets were prepared using a modified human platelet protocol with final concentrations of […] (Cayman Chemical, Ann Arbor, MI, USA) used during centrifugation steps. Centrifugations after Tyrode's washes was decreased to 1,250×g as described in Cremer et al., PLOS One. 2019; 14(11): e0224891. Platelet aggregation was measured under stirring conditions at 37° C. using a PAP-8E aggregometer after treatment with the following agonists: arachidonic acid (Bio/Data Corporation, Horsham, PA, USA), cathepsin G, elastase, proteinase 3 (Athens Research Group), α-thrombin (Sigma, St. Louis, MO, USA), PAR-1 peptide (SFLLRN) (GL Biochem, China). P-selectin and PAC-1 were measured as previously described (Yee et al., J Thromb Haemost. 2006; 4(9):2043-2050; Tourdot et al., Arterioscler Thromb Vasc Biol. 2014; 34(12):2644-2650).

CatG: serine protease cathepsin G released by activated neutrophils
cleavage of PAR4-C peptide (PAR4-C (SEQ ID NO: 8)): cleavage between Ser67 (S67)-Arg68 (R68) | CatG-induced calcium flux, S66E mutant compared with WT (PAR4-S66E; CatG 2.5 μM): slight decrease | cleavage of PAR4-B peptide (PAR4-B (SEQ ID NO: 7)): largely intact; also recorded: little cleavage | platelet aggregation, species comparison: rats (rat washed platelets): only induced platelet aggregation in humans and dogs

thrombin
cleavage of PAR4-C peptide (PAR4-C (SEQ ID NO: 8)): failed to cleave | thrombin-induced calcium flux, S66E mutant compared with WT (PAR4-S66E; thrombin 1.5 U/mL): None of the PAR4 mutants were significantly different than WT | cleavage of PAR4-B peptide (PAR4-B (SEQ ID NO: 7)): cleaved by thrombin between amino acids Arg47 and Gly48 | cleavage of PAR4-B peptide (PAR4-B (SEQ ID NO: 7); listed as Thrombin): proteolyzed virtually all | platelet aggregation, species comparison: rats (rat washed platelets): induced platelet aggregation
